For 8 compounds, inhibition results are on record in patent publication US20090042724A1, “Fungicidal mixtures based on 2,4-disubstituted n-biphenylpyrazolecarboxamides” (priority 2005, published 2009).

Assay type in all cases: in vivo
The test system of assay [1] is Puccinia recondita. Description: Curative activity against brown rust of wheat caused by Puccinia recondita. Particulars: 168 h, single active compound, sprayed the day after inoculation, 7 days, control 90% infection, read-out: Observed activity (% infection). The procedure: (§1) The active compounds, separately or jointly, were prepared as a stock solution comprising 25 mg of active compound which was made up to 10 ml using a mixture of acetone and/or dimethyl sulfoxide and the emulsifier Uniperol® EL (wetting agent having an emulsifying and dispersing action based on ethoxylated alkylphenols) in a ratio by volume of solvent/emulsifier of 99:1. The mixture was then made up to 100 ml with water. This stock solution was diluted with the solvent/emulsifier/water mixture described to give the concentration of active compound stated below.
(§2) Alternatively, the active compounds epoxiconazole and pyraclostrobin were used as a commercial formulation and diluted with water to the stated active compound concentrations.
(§3) The visually determined percentages of infected leaf areas were converted into efficacies in % of the untreated control.
(§4) The efficacy (E) is calculated as follows using Abbot's formula: […]
(§5) The expected efficacies of active compound mixtures were determined using Colby's formula [R. S. Colby, “Calculating synergistic and antagonistic responses of herbicide combinations”, Weeds 15, 20-22 (1967)] and compared with the observed efficacies. […]
Leaves of wheat seedlings of the cultivar “Kanzler” cultivated in pots were inoculated with a spore suspension of brown rust (Puccinia recondita). […] The extent of the rust fungus development on the leaves was then determined.

For assay [2], the system named is Puccinia recondita. The assay can be described thus: Protective activity against Puccinia recondita on wheat (brown rust of wheat). Particulars: single active compound, control 90% infection, read-out: Observed activity (% infection). The procedure: as §1, §2, §3, §4
(§6) α corresponds to the fungicidal infection of the treated plants in % and β corresponds to the fungicidal infection of the untreated (control) plants in %
(§7) An efficacy of 0 means that the infection level of the treated plants corresponds to that of the untreated control plants; an efficacy of 100 means that the treated plants were not infected.
(§8) The expected efficacies of active compound mixtures were determined using Colby's formula [R. S. Colby, “Calculating synergistic and antagonistic responses of herbicide combinations”, Weeds 15, 20-22 (1967)] and compared with the observed efficacies.
(§9) E=x+y−x·y/100 Colby's formula • E expected efficacy, expressed in % of the untreated control, when using the mixture of the active compounds A and B at the concentrations a and b; • x efficacy, expressed in % of the untreated control, when using the active compound A at the concentration a; • y efficacy, expressed in % of the untreated control, when using the active compound B at the concentration b;
Leaves of potted wheat seedlings of the cultivar “Kanzler” were sprayed to runoff point with an aqueous suspension having the concentration of active compound stated below. The next day the treated plants were inoculated with a spore suspension of brown rust of wheat (Puccinia recondita). The plants were then placed in a chamber at high atmospheric humidity (90 to 95%) at 20 to 22° C. for 24 hours. During this time, the spores germinated and the germ tubes penetrated into the leaf tissue. The next day, the test plants were returned to the greenhouse and cultivated at temperatures between 20 and 22° C. and 65 to 70% relative atmospheric humidity for a further 7 days. The extent of the rust fungus development on the leaves was then determined visually.

The subject of assay [3] is Alternaria solani. The assay can be described thus: Activity against early blight on tomatoes caused by Alternaria solani (protective spray, potted tomato plants). The note with it: 120 h, single active compound, efficacy in % of untreated control (Abbot), evaluated after 5 days, control 90% infection, read-out: Observed activity (% infection); for inhibition at 4 µg/mL: 4 mg/l; for inhibition at 1 µg/mL: 1 mg/l. The procedure: as §1, §2, §3, §4, §6, §7, §8, §9
Leaves of potted tomato plants were sprayed to runoff point with an aqueous suspension having the concentration of active compounds stated below. The next day, the leaves were infected with an aqueous spore suspension of Alternaria solani in a 2% biomalt solution having a density of 0.17×10^6 spores/ml. The plants were then placed in a water vapor-saturated chamber at temperatures between 20 and 22° C. After 5 days, the disease on the untreated, but infected control plants had developed to such an extent that the infection could be determined visually in %.

The subject of assay [4] is Botrytis cinerea. The assay can be described thus: Activity against gray mold on bell pepper leaves caused by Botrytis cinerea, 1 day protective application. The note with it: 120 h, single active compound, 1 mg/l, efficacy in % of untreated control, after 5 days, control 100% infection, read-out: Observed activity (% infection). How it is done: The active compounds, separately or jointly, were prepared as a stock solution comprising 25 mg of active compound which was made up to 10 ml using a mixture of acetone and/or dimethyl sulfoxide and the emulsifier Uniperol® EL (wetting agent having an emulsifying and dispersing action based on ethoxylated alkylphenols) in a ratio by volume of solvent/emulsifier of 99:1. The mixture was then made up to 100 ml with water. This stock solution was diluted with the solvent/emulsifier/water mixture described to give the concentration of active compound stated below. […]
as §3, §4, §5
Bell pepper seedlings of the cultivar “Neusiedler Ideal Elite” were, after 2-3 leaves were well developed, sprayed to runoff point with an aqueous suspension in the active compound concentration stated below. […] After 5 days, the extent of the fungal infection on the leaves could be determined visually in %.

For assay [5], the system named is Pyrenophora [syn. Drechslera] teres. Description: Activity against net blotch of barley caused by Pyrenophora teres, 1 day protective application. The note with it: 144 h, single active compound, after 6 days, control 90% infection, read-out: Observed activity (% infection); for inhibition at 16 µg/mL: 16 mg/l. How it is done: as §1, §2, §3, §4, §6, §7, §5
Leaves of potted barley seedlings were sprayed to runoff point with an aqueous suspension having the concentration of active compound stated below. […] After 6 days, the extent of the development of the disease was determined visually in % infection of the entire leaf area.

Consider `Fc1ccc([C@]2(Cn3cncn3)O[C@H]2c2ccccc2Cl)cc1` (racemic) [epoxiconazole, (2RS,3SR)-1-[3-(2-chlorophenyl)-2,3-epoxy-2-(4-fluorophenyl)propyl]-1H-1,2,4-triazole], for which, in assay [1] (0.25 mg/l), the inhibition at 0.25 µg/mL is 0%. Moreover, the inhibition at 0.063 µg/mL in assay [2] (0.063 mg/l) came to 11%.

As for `CC1CCN(c2c(-c3c(F)cc(F)cc3F)c(Cl)nc3ncnn23)CC1` [5-chloro-7-(4-methylpiperidin-1-yl)-6-(2,4,6-trifluorophenyl)-[1,2,4]triazolo[1,5-a]pyrimidine], the inhibition at 4 µg/mL in assay [3] came to 22%.

For the compound `Cn1cc(C(=O)Nc2ccccc2-c2ccc(Cl)cc2Cl)c(C(F)F)n1` [No. I.7, N-(2′,4′-dichlorobiphenyl-2-yl)-1-methyl-3-difluoromethyl-1H-pyrazole-4-carboxamide], the inhibition at 1 µg/mL in assay [3] turned out to be 0%. Besides, in assay [2] (0.25 mg/l), the inhibition at 0.25 µg/mL was found to be 11%.

Consider `Cn1cc(C(=O)Nc2ccccc2-c2ccc(F)cc2F)c(C(F)F)n1` [No. I.11, N-(2′,4′-difluorobiphenyl-2-yl)-1-methyl-3-difluoromethyl-1H-pyrazole-4-carboxamide], for which the inhibition at 1 µg/mL in assay [4] and in assay [3] was 0% each time. The inhibition at 4 µg/mL in assay [5] (4 mg/l) was determined as 63%.

Regarding `Cn1nc(C(F)(F)F)c(C(=O)Nc2ccccc2-c2ccc(Cl)cc2Cl)c1F` [No. I.17, N-(2′,4′-dichlorobiphenyl-2-yl)-1-methyl-3-trifluoromethyl-5-fluoro-1H-pyrazole-4-carboxamide], the inhibition at 1 µg/mL in assay [1] (1 mg/l) and in assay [3] was 0% in each case. Further, the inhibition at 16 µg/mL in assay [2] (16 mg/l) stood at 22%.

As for `COc1ccc(C(=CC(=O)N2CCOCC2)c2ccc(Cl)cc2)cc1OC` [dimethomorph, 3-(4-chlorophenyl)-3-(3,4-dimethoxyphenyl)-1-morpholin-4-ylpropenone], the inhibition at 16 µg/mL in assay [5] was determined as 0%. The inhibition at 4 µg/mL in assay [3] came out at 0%.

`COc1cc(C)c(C(=O)c2c(OC)ccc(Br)c2C)c(OC)c1OC` [metrafenone, 3′-bromo-2,3,4,6′-tetramethoxy-2′,6-dimethylbenzophenone]: the inhibition at 16 µg/mL in assay [5] worked out at 0%. Moreover, the inhibition at 63 µg/mL in assay [2] (63 mg/l) worked out at 0%.

On to `COC(=O)N(OC)c1ccccc1COc1ccn(-c2ccc(Cl)cc2)n1` [pyraclostrobin, methyl N-{2-[1-(4-chlorophenyl)-1H-pyrazol-3-yloxymethyl]phenyl}(N-methoxy)carbamate], for which the inhibition at 1 µg/mL in assay [4] worked out at 0%.
